Numbers after ± are expanded uncertainties.
Details: 101 kPa, Liquid, HP 4194A impedance-gain phase analyzer

C[S+](C)[O-] [dimethyl sulfoxide]
Details	electrical conductivity [S/m]
293.15 K	0.000188 ± 3.8e-06
295.15 K	0.000201 ± 4e-06
297.15 K	0.000211 ± 4.2e-06
299.15 K	0.000225 ± 4.5e-06
301.15 K	0.000236 ± 4.7e-06
303.15 K	0.000248 ± 5e-06
305.15 K	0.000262 ± 5.2e-06
307.15 K	0.000274 ± 5.5e-06
309.15 K	0.000287 ± 5.7e-06
311.15 K	0.0003 ± 6e-06
313.15 K	0.000315 ± 6.3e-06
315.15 K	0.000328 ± 6.6e-06
317.15 K	0.000341 ± 6.8e-06
319.15 K	0.000355 ± 7.1e-06
321.15 K	0.000369 ± 7.4e-06
323.15 K	0.000384 ± 7.7e-06
325.15 K	0.000399 ± 8e-06
327.15 K	0.000419 ± 8.4e-06
329.15 K	0.000437 ± 8.7e-06
331.15 K	0.000455 ± 9.1e-06
333.15 K	0.000474 ± 9.5e-06
